Results published in paper PMC9848351, “Discovery of new pyridine-quinoline hybrids as competitive and non-competitive PIM-1 kinase inhibitors with apoptosis induction and caspase 3/7 activation capabilities” (Journal of Enzyme Inhibition and Medicinal Chemistry, 2023).

Columns and labels:
[1] = system: normal human lung fibroblast Wi-38 cell line; assay: MTT cytotoxicity on normal cells; assay type: cell-based; conditions: Wi-38, 72 h, MTT, mean ± SEM; for EC50: Homo sapiens, 50% cell viability; for Wi-38 EC100: safe dose, 100% cell viability
Method: Cytotoxicity of the tested compounds was evaluated using normal human lung fibroblast Wi-38 cell line compared to currently used anticancer drug (doxorubicin) using MTT method was used for assaying cell viability[26] (Supplementary Page S55).
Cytotoxicity test is one of the biological evaluations and screening tests that use human normal and cancer cells in-vitro to observe the effect of the studied compounds on their growth using MTT-based cytotoxicity. Microculture MTT method[26] was used to determine cytotoxic activity of the newly synthesised compounds against normal human lung fibroblast (Wi-38) using doxorubicin (Dox) as standard anticancer drug. The highest IC50 and EC100 values illustrate that the compounds were safe on the proliferation of normal human cells. […]. page 47:
(§1) Cytotoxicity of the tested compounds was evaluated using normal human lung fibroblast Wi-38 cell line compared to currently used anticancer drug (doxorubicin).
Firstly, Wi-38 cell line was subcultured in DMEM medium-contained 10% fetal bovine serum (FBS), then, seeded as 5x10^3 cells per well in 96-well cell culture plate and incubated at 37 °C in 5% CO 2 incubator. Serial concentrations of these compounds and doxorubicin (Dox) were incubat ed with Wi-38 cells for 72 h after 24 h for cell attachment. MTT method was used for assaying cell viability 25. Twenty microliters of 5 mg/ml MTT (Sigma, USA) was added to each well and the plate was incubated at 37 °C for 3 h. Then MTT solution was removed, 100 µl DMSO was used and the absorbance of each well was measured with a microplate reader ( BMG LabTech, Germany) at 570 nm. The effective concentration (IC 50) and safe dose (EC100) values of the tested compounds that cause 50% and 100% cell viability were estimated by the Graphpad Instat software. […]

[2] = system: liver cancer cell line (HepG-2); assay: MTT anticancer activity, HepG-2; assay type: cell-based, human; conditions: Homo sapiens, HepG2; HepG-2, 72 h, MTT; mean ± SEM
Method: (§2) Anticancer effect of the above-mentioned compounds was evaluated using four human cancer cell lines. Colon cancer cells (Caco-2), myeloid leukaemia cell line (NFS-60), liver cancer cell line (HepG-2) and prostate cancer cell line (PC-3) using MTT method was used for assaying cell viability[26] (Supplementary Page S55).
(§3) All final compounds were evaluated against four human cancer cell lines namely; liver cancer (HepG2) (ATCC® HB-8065™), colon cancer (Caco-2) (ATCC® HTB-37™), leukaemia cancer (NFS-60) (ATCC® CRL-1838™), and prostate cancer (PC-3) (ATCC® CRL-1435™) using doxorubicin (Dox) as the reference drug being widely used in tumour management utilising microculture MTT assay, declared by Mosmann[26] (Table 1 in Supplementary Material, Figures 5–8). […]
(§4) MTT method was used for assaying cell viability 25. Twenty microliters of 5 mg/ml MTT (Sigma, USA) was added to each well and the plate was incubated at 37 °C for 3 h. Then MTT solution was removed, 100 µl DMSO was used and the absorbance of each well was measured with a microplate reader ( BMG LabTech, Germany) at 570 nm. The effective concentration (IC 50) and safe dose (EC100) values of the tested compounds that cause 50% and 100% cell viability were estimated by the Graphpad Instat software.
(§5) Determination of the anticancer activity
(§6) Anticancer effect of the above-mentioned compounds was evaluated using four human cancer cell lines. Colon cancer cells (Caco-2) were maintained in DMEM (Lonza, USA) containing 10% FBS while myeloid leukemia cell line (NFS-60), liver cancer cell line (HepG-2) and prostate cancer cell line (PC-3) were cultured in RPMI-1640 (Lonza, USA) supplemented with 10% FBS. All cancer cells (5x10^3 cells/well) were seeded in sterile 96-well plates. After 24h, serial concentrations of the tested compounds and Dox were incubated with four cancer cell lines for 72 h at 37 °C in 5% CO2 incubator. MTT method was done as described above. The Graphpad Instat software was used for calculating the half maximal inhibitory concentration (IC50) values. Furthermore, phase contrast inverted microscope with a digital camera (Olympus, Japan) was used for investigating […]
(§7) safest anticancer compounds. […]

[3] = system: Colon cancer cells (Caco-2); assay: MTT anticancer activity, Caco-2; assay type: cell-based, human; conditions: for IC50: Homo sapiens, Caco-2, 72 h, MTT, mean ± SEM; for Caco-2 SI: selectivity index, Wi-38 versus Caco-2
Method: as §2
All final compounds were evaluated against four human cancer cell lines namely; liver cancer (HepG2) (ATCC® HB-8065™), colon cancer (Caco-2) (ATCC® HTB-37™), leukaemia cancer (NFS-60) (ATCC® CRL-1838™), and prostate cancer (PC-3) (ATCC® CRL-1435™) using doxorubicin (Dox) as the reference drug being widely used in tumour management utilising microculture MTT assay, declared by Mosmann[26] (Table 1 in Supplementary Material, Figures 5–8).
as §1
Firstly, Wi-38 cell line was subcultured in DMEM medium-contained 10% fetal bovine serum (FBS), then, seeded as 5x10^3 cells per well in 96-well cell culture plate and incubated at 37 °C in 5% CO 2 incubator. Serial concentrations of these compounds and doxorubicin (Dox) were incubat ed with Wi-38 cells for 72 h after 24 h for cell attachment. MTT method was used for assaying cell viability 25. Twenty microliters of 5 mg/ml MTT (Sigma, USA) was added to each well and the plate was incubated at 37 °C for 3 h. Then MTT solution was removed, 100 µl DMSO was used and the absorbance of each well was measured with a microplate reader ( BMG LabTech, Germany) at 570 nm. The effective concentration (IC 50) and safe dose (EC100) values of the tested compounds that cause 50% and 100% cell viability were estimated by the Graphpad Instat software.
as §5, §6, §7

[4] = system: myeloid leukaemia cell line (NFS-60); assay: MTT anticancer activity, NFS-60; assay type: cell-based; conditions: NFS-60, 72 h, MTT; mean ± SEM
Method: as §2, §3, §4, §5, §6, §7

[5] = system: prostate cancer cell line (PC-3); assay: MTT anticancer activity, PC-3; assay type: cell-based, human; conditions: Homo sapiens, 72 h, PC-3, 72 h, mean ± SEM
Method: as §2, §3, §4, §5, §6, §7

SMILES | EC50 [1] [nM] | Wi-38 EC100 [1] [µM] | IC50 [2] [nM] | melting point [°C] | IC50 [3] [nM] | Caco-2 SI [3] | IC50 [4] [nM] | IC50 [5] [nM]
COc1ccc2nc(N3CCOCC3)c(-c3cc(-c4cccc(OC(C)=O)c4)[nH]c(=O)c3C#N)cc2c1 [7c, 3-(5-Cyano-4-(6-methoxy-2-morpholin-4-yl-quinolin-3-yl)-6-oxo-1,6-dihydropyridin-2-yl)phenyl acetate] | 137 ± 0.1 | 0.094 ± 0.005 | 142.1 ± 1 | > 300 | 127 ± 14 | 1.079 | 153 ± 34 | 101 ± 1
N#Cc1c(-c2cc3ccccc3nc2N2CCOCC2)cc(-c2cccc(O)c2)nc1OCC(=O)O [9a, 2-((3-Cyano-6-(3-hydroxyphenyl)-4-(2-morpholin-4-yl-quinolin-3-yl)pyridin-2-yl)oxy)acetic acid] | 159 ± 4 | 0.0254 ± 0.002 | 78.2 ± 2 | 179 to 180 | 73.9 ± 0.1 | 2.152 | 92.3 ± 0.1 | 84.7 ± 3
N#Cc1c(-c2cc3cc(Cl)ccc3nc2N2CCOCC2)cc(-c2cccc(O)c2)nc1OCC(=O)O [9b, 2-((4-(6-Chloro-2-morpholin-4-yl-quinolin-3-yl)-3-cyano-6-(3-hydroxyphenyl)pyridin-2-yl)oxy)acetic acid] | 171 ± 1 | 0.134 ± 0.01 | 45.4 | 279 to 280 | 55.2 ± 2 | 3.098 | 380 ± 10 | 97.3 ± 8
COc1ccc2nc(N3CCOCC3)c(-c3cc(-c4cccc(O)c4)nc(OCC(=O)O)c3C#N)cc2c1 [9c, 2-((3-Cyano-6-(3-hydroxyphenyl)-4-(6-methoxy-2-morpholin-4-yl-quinolin-3-yl)pyridin-2-yl)oxy)acetic acid] | 276 ± 2 | 0.0754 ± 0.003 | 86.7 ± 3 | 274 to 275 | 52.6 ± 0.1 | 5.247 | 96.1 ± 2 | 46.2 ± 2
N#Cc1c(-c2cc3ccccc3nc2N2CCOCC2)cc(-c2cccc(O)c2)nc1OCC(=O)Nc1ccccc1 [11a, 2-((3-Cyano-6-(3-hydroxyphenyl)-4-(2-morpholin-4-yl-quinolin-3-yl)pyridin-2-yl)oxy)-N-phenylacetamide] | 144 ± 1 | 0.0906 ± 0.012 | 336 ± 22 | 243 to 245 | 158 ± 2 | 0.911 | 126 ± 6 | 158 ± 26
N#Cc1c(-c2cc3ccccc3nc2N2CCOCC2)cc(-c2cccc(O)c2)nc1OCC(=O)Nc1ccc(Cl)cc1 [11b, N-(4-Chlorophenyl)-2-((3-cyano-6-(3-hydroxyphenyl)-4-(2-morpholin-4-yl-quinolin-3-yl)pyridin-2-yl)oxy)acetamide] | 337 ± 24 | 0.00232 ± 0.001 | 71.5 ± 1 | 279 to 280 | 63 ± 2 | 5.349 | 181 ± 7 | 130 ± 11
COc1ccc(NC(=O)COc2nc(-c3cccc(O)c3)cc(-c3cc4ccccc4nc3N3CCOCC3)c2C#N)cc1 [11c] | 101 ± 1 | 0.0483 ± 0.004 | 281 ± 7 | 268 to 270 | 100 ± 14 | 1.010 | 110 ± 2 | 159 ± 7
COc1ccc2nc(N3CCOCC3)c(-c3cc(-c4cccc(O)c4)nc(OCC(=O)Nc4ccccc4)c3C#N)cc2c1 [11g, 2-((3-Cyano-6-(3-hydroxyphenyl)-4-(6-methoxy-2-morpholin-4-yl-quinolin-3-yl)pyridin-2-yl)oxy)-N-phenylacetamide] | 186 ± 10 | 0.0450 ± 0.005 | 62.8 ± 1 | 269 to 270 | 62.6 ± 1 | 2.971 | 103 ± 9 | 83.9 ± 3
COc1ccc2nc(N3CCOCC3)c(-c3cc(-c4cccc(O)c4)nc(OCC(=O)Nc4ccc(Cl)cc4)c3C#N)cc2c1 [11h, N-(4-Chlorophenyl)-2-((3-cyano-6-(3-hydroxyphenyl)-4-(6-methoxy-2-morpholin-4-yl-quinolin-3-yl)pyridin-2-yl)oxy)acetamide] | 166 ± 3 | 0.0182 ± 0.001 | 74 ± 2 | 230 to 232 | 82.9 ± 3 | 2.002 | 78.1 ± 7 | 70.9 ± 0.1
COc1ccc(NC(=O)COc2nc(-c3cccc(O)c3)cc(-c3cc4cc(OC)ccc4nc3N3CCOCC3)c2C#N)cc1 [11i, 2-((3-Cyano-6-(3-hydroxyphenyl)-4-(6-methoxy-2-morpholin-4-yl-quinolin-3-yl)pyridin-2-yl)oxy)-N-(4-methoxyphenyl)acetamide] | 258 ± 31 | 0.148 ± 0.0001 | 48.6 | > 300 | 34.7 ± 3 | 7.435 | 523 ± 40 | 63.4 ± 2
N#Cc1c(-c2cc3cc(Cl)ccc3[nH]c2=O)cc(-c2cccc(O)c2)[nH]c1=O [13b, 4-(6-Chloro-2-oxo-1,2-dihydroquinolin-3-yl)-6-(3-hydroxyphenyl)-2-oxo-1,2-dihydropyridine-3-carbonitrile] | 48.6 ± 16 | 0.017 ± 0.002 | 30.9 | > 300 | 48.4 ± 5 | 1.005 | 33.7 | 38.8 ± 3
N#Cc1c(-c2cc3cc(Cl)ccc3[nH]c2=O)cc(-c2cccc(O)c2)nc1S [14b, 4-(6-Chloro-2-oxo-1,2-dihydroquinolin-3-yl)-6-(3-hydroxyphenyl)-2-mercaptopyridine-3-carbonitrile] | 196 ± 12 | 0.153 ± 0.005 | 125 ± 2 | 227 to 230 | 146 ± 19 | 1.342 | 135 ± 3 | 140 ± 4
